Test results: ChEMBL document CHEMBL1201862, “PubChem BioAssay data set” (2004)
The source made the active and inactive calls.

Legend:
Ion channel NompC = Ion channel NompC (Danio rerio, UniProt Q7T1G6); assay: Dose response cell-based high-throughput screening assay for agonists of the transient receptor potential channel N1 (TRPN1). [Related pubchem assays (depositor defined):AID1424, AID1448]; assay type: functional
[1] = cytotoxicity in MIN6 insulinoma cells, dose response, cytotoxicity control, cell-based, mouse insulinoma (AID 2122); assay type: functional;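 note: confirmatory high-throughput counterscreen run to flag cytotoxic compounds; mouse MIN-6 beta cells carrying an insulin promoter eGFP reporter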
Mucolipin-3 = Mucolipin-3 (Homo sapiens, UniProt Q8TDD5); assay: Fluorescence counterscreen assay for […] agonists: dose response cell-based high-throughput screening assay to identify agonists of the transient receptor potential channel ML3 (TRPML3). [Related pubchem assays: 1424, 1448 ]; assay type: functional
[2] = molecular target: T1, Carboxy-terminal domain RNA polymerase II polypeptide A small phosphatase 1 (Homo sapiens, UniProt Q9GZU7); assay: inhibitors of CTDSP1, concentration-response testing, biochemical assay, absorbance-based, actives from ultra-high-throughput screening (AID 540297); assay type: functional
T1 sequence (Q9GZU7 whole entry): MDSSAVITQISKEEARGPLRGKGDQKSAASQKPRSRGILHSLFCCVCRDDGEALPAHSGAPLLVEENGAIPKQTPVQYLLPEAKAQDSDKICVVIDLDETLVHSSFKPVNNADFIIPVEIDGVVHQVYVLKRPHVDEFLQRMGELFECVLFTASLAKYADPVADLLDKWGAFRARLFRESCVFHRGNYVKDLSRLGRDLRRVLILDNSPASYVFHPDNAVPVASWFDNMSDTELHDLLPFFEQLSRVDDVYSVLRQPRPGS

[3] = insulin promoter down-regulators in MIN6 cells, imaging, high-content screening, mouse beta cells (AID 1628); assay type: functional
[4] = molecular target: T2, G-protein coupled receptor 55 (Homo sapiens, UniProt Q9Y2T6); assay: GPR55 antagonist potency of analogs, SAR follow-up, imaging, U2OS, beta-arrestin-GFP, LPI agonist, set 2 (AID 2820); assay type: functional
[5] = molecular target: T2, G-protein coupled receptor 55; assay: GPR55 antagonists blocking LPI-driven arrestin recruitment, primary screen, imaging, U2OS, beta-arrestin-GFP, LPI agonist (AID 2013); assay type: functional;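 note: antagonist potency measured as reduced agonist-driven arrestin aggregation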
Cannabinoid receptor 1 [6] = molecular target: T3, Cannabinoid receptor 1 (Homo sapiens, UniProt P21554); assay: SAR analysis of antagonists of the Cannabinoid Receptor 1 using an Image-Based Assay - Set 2. [Related pubchem assays (depositor defined):AID2013, AID2026]; assay type: functional
Cannabinoid receptor 2 [7] = molecular target: T4, Cannabinoid receptor 2 (Homo sapiens, UniProt P34972); assay: SAR analysis of antagonists of the Cannabinoid Receptor 2 using an Image-Based Assay. [Related pubchem assays (depositor defined):AID2013, AID2026]; assay type: functional
[8] = molecular target: T5, G-protein coupled receptor 35 (Homo sapiens, UniProt Q9HC97); assay: SAR analysis of Agonists of the GPR35 Receptor using an Image-Based Assay - Set 2. [Related pubchem assays (depositor defined):AID2013, AID2026]; assay type: functional
[9] = molecular target: T5, G-protein coupled receptor 35; assay: SAR analysis of Antagonists of the GPR35 Receptor using an Image-Based Assay - Set 3. [Related pubchem assays (depositor defined):AID2013, AID2026]; assay type: functional
Cannabinoid receptor 2 [10] = molecular target: T4, Cannabinoid receptor 2; assay: SAR analysis of agonists of the Cannabinoid Receptor 2 using an Image-Based Assay. [Related pubchem assays (depositor defined):AID2013, AID2026]; assay type: functional
Cannabinoid receptor 1 [11] = molecular target: T3, Cannabinoid receptor 1; assay: SAR analysis of agonists of the Cannabinoid Receptor 1 using an Image-Based Assay - Set 2. [Related pubchem assays (depositor defined):AID2013, AID2026]; assay type: functional
[12] = molecular target: T6, Kappa-type opioid receptor (Homo sapiens, UniProt P41145); assay type: functional
[13] = molecular target: T6, Kappa-type opioid receptor; assay: KOR antagonists by imaging, SAR follow-up, image-based (AID 2348); assay type: functional
Beta-galactosidase = Beta-galactosidase (Escherichia coli, UniProt Q8VNN2); assay type: functional
[14] = molecular target: T7, Delta-type opioid receptor (Homo sapiens, UniProt P41143); assay: DOR agonists, SAR follow-up, image-based (AID 2370); assay type: functional
[15] = Luminescence Cell-Based Dose Confirmation HTS to Identify Activators of 5'UTR Stem-Loop Driven Alpha-Synuclein mRNA Translation in H4 Neuroglioblastoma Cells. [Related pubchem assays: 1829 (Project Summary), 1814 (Primary HTS)]; assay type: functional
H4 = assay: Luminescence Cell-Based Dose Response HTS to Identify Activators of 5'UTR Stem-Loop Driven Prion Protein mRNA Translation in H4 Neuroglioblastoma Cells. [Related pubchem assays: 1829 (Project Summary), 1814 (Primary HTS)]; assay type: functional; conditions: Homo sapiens
[16] = molecular target: T6, Kappa-type opioid receptor; assay: kappa opioid receptor blockers, cell-based, luminescence, beta-arrestin, SAR follow-up (AID 2285); assay type: functional
Mu-type opioid receptor [17] = molecular target: T8, Mu-type opioid receptor (Homo sapiens, UniProt P35372); assay: MOR agonists by imaging, SAR follow-up, image-based (AID 2352); assay type: functional
[18] = Luminescence Cell-Based Dose Response HTS to Identify Activators of Luciferase Translation or Activity in H4 […] Cells. [Related pubchem assays: 1829 (Project Summary), 1814 (Primary HTS)]; assay type: functional
[19] = molecular target: T6, Kappa-type opioid receptor; assay: KOR agonist analogs, imaging readout, SAR follow-up, image-based (AID 2359); assay type: functional
[20] = molecular target: T6, Kappa-type opioid receptor; assay type: functional; remark: listed apart in the source
Mu-type opioid receptor [21] = molecular target: T8, Mu-type opioid receptor; assay: MOR antagonists, SAR follow-up, image-based (AID 2420); assay type: functional;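 note: compounds added before stimulation of receptor with agonist DAMGO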
[22] = molecular target: T7, Delta-type opioid receptor; assay: DOR antagonists, SAR follow-up, image-based (AID 2357); assay type: functional
[23] = molecular target: Nucleotide-binding oligomerization domain-containing protein 2 (Homo sapiens, UniProt Q9HC29); assay: NOD2 signaling inhibitors, analog potency, SAR follow-up, cell-based, set 3 (AID 2799); assay type: functional
Tumor necrosis factor = Tumor necrosis factor (Homo sapiens, UniProt P01375); assay: TNFa-triggered NF-kB activation inhibitors, SAR follow-up, cell-based, set 3 (AID 2801); assay type: functional
HEK293 = assay: SAR analysis of compounds that are cytotoxic to HEK293 - Set 3. [Related pubchem assays (depositor defined):AID1575, AID1578, AID1848, AID1849, AID2001, AID2333, AID2334, AID2335, AID2337, AID2469]; assay type: functional, cell-based; conditions: Homo sapiens
[24] = molecular target: Nucleotide-binding oligomerization domain-containing protein 1 (Homo sapiens, UniProt Q9Y239); assay: SAR analysis of compounds that inhibit NOD1 - Set 3. [Related pubchem assays (depositor defined):AID1566, AID1575, AID1578, AID1849, AID1852, AID2333, AID2335, AID2466]; assay type: functional
[25] = molecular target: T7, Delta-type opioid receptor; assay: SAR Analysis of Agonists of the DOR Receptor using an Image-Based Assay - Set 3. [Related pubchem assays (depositor defined):AID1777, AID1786]; assay type: functional
[26] = molecular target: T6, Kappa-type opioid receptor; assay: SAR analysis of small molecule agonists of the kappa opioid receptor via a luminescent beta-arrestin assay - Set 3. [Related pubchem assays (depositor defined):AID1777, AID1785, AID1786, AID1966, AID2133, AID2136, AID2284, AID2500]; assay type: functional
Mu-type opioid receptor [27] = molecular target: T8, Mu-type opioid receptor; assay: SAR Analysis of Agonists of the MOR Receptor using an Image-Based Assay - Set 3. [Related pubchem assays (depositor defined):AID1777, AID1785, AID1786, AID1966, AID2133, AID2136, AID2284, AID2285, AID2352]; assay type: functional
[28] = molecular target: T6, Kappa-type opioid receptor; assay: KOR agonist analogs, arrestin-GFP redistribution, SAR follow-up, imaging, image-based, set 3 (AID 488833); assay type: functional

T6 sequence (P41145 whole entry): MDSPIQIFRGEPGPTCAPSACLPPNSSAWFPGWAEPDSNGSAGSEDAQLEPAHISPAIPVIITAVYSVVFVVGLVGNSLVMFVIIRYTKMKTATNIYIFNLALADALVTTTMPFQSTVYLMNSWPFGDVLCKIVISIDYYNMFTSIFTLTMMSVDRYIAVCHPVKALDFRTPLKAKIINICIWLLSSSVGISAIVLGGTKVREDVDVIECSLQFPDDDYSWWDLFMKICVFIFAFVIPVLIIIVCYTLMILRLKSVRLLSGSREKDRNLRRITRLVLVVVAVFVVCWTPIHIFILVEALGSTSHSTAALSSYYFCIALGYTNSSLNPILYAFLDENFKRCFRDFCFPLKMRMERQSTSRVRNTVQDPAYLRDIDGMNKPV
T7 sequence (P41143 whole entry): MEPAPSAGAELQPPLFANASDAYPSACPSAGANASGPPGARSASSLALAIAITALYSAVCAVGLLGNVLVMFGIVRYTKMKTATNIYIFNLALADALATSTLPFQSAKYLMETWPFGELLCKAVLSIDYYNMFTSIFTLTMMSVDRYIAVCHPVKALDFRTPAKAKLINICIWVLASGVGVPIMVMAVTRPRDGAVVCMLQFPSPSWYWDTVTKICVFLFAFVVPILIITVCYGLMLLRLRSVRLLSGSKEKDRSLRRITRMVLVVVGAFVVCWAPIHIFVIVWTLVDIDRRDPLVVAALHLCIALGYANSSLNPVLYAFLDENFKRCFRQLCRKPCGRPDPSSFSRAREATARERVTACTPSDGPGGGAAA
T8 sequence (P35372 whole entry): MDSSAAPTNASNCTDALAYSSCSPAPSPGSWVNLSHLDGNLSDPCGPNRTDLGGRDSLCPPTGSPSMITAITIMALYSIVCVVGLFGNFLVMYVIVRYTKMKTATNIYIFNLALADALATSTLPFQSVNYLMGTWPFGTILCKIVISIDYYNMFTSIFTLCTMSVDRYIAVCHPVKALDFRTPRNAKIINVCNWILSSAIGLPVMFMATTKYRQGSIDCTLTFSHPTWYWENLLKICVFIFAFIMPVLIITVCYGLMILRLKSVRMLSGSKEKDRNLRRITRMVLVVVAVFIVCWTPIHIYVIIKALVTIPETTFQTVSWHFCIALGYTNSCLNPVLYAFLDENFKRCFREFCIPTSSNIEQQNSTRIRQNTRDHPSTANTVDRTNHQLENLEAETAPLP
T5 sequence (Q9HC97 whole entry): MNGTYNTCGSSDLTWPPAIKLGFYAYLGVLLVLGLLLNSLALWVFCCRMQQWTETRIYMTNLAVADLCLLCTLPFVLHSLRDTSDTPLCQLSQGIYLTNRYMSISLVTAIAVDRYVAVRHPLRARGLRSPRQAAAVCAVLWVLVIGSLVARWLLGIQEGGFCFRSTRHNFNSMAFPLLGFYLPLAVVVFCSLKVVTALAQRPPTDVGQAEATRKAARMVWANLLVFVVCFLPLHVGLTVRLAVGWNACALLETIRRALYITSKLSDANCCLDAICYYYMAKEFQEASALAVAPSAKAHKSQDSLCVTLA
T3 sequence (P21554 whole entry): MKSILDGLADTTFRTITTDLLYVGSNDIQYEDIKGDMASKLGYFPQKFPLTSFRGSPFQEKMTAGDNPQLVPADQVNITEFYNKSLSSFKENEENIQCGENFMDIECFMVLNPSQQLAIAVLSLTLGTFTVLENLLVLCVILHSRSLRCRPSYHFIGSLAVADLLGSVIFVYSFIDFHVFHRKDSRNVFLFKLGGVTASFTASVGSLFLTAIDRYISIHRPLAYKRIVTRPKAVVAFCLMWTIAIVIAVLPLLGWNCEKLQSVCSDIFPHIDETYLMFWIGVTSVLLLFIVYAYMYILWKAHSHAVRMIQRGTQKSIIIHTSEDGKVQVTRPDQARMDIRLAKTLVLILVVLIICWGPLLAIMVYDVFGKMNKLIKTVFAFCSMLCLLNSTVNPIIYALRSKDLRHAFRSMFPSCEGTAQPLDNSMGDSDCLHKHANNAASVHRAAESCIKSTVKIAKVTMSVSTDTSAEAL
T4 sequence (P34972 whole entry): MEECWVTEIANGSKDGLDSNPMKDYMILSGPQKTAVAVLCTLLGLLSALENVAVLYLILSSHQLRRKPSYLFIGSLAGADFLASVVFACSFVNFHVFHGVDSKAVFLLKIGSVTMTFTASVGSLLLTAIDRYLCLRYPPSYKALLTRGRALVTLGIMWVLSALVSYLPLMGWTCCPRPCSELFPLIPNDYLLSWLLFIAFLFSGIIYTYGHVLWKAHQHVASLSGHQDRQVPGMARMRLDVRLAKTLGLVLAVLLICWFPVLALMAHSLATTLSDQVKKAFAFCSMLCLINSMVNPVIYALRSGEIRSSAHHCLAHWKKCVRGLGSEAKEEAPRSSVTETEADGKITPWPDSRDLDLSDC
T2 sequence (Q9Y2T6 whole entry): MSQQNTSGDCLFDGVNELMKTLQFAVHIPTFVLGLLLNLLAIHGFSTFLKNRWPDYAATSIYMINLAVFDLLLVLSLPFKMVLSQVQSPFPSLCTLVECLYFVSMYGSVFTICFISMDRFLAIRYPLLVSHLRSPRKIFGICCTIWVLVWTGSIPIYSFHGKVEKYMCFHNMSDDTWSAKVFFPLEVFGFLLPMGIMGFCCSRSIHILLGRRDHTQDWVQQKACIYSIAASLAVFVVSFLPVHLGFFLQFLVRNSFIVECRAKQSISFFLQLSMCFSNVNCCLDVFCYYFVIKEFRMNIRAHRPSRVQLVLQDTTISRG
Sequence of Nucleotide-binding oligomerization domain-containing protein 1 (Q9Y239 whole entry, the tested form may be a part): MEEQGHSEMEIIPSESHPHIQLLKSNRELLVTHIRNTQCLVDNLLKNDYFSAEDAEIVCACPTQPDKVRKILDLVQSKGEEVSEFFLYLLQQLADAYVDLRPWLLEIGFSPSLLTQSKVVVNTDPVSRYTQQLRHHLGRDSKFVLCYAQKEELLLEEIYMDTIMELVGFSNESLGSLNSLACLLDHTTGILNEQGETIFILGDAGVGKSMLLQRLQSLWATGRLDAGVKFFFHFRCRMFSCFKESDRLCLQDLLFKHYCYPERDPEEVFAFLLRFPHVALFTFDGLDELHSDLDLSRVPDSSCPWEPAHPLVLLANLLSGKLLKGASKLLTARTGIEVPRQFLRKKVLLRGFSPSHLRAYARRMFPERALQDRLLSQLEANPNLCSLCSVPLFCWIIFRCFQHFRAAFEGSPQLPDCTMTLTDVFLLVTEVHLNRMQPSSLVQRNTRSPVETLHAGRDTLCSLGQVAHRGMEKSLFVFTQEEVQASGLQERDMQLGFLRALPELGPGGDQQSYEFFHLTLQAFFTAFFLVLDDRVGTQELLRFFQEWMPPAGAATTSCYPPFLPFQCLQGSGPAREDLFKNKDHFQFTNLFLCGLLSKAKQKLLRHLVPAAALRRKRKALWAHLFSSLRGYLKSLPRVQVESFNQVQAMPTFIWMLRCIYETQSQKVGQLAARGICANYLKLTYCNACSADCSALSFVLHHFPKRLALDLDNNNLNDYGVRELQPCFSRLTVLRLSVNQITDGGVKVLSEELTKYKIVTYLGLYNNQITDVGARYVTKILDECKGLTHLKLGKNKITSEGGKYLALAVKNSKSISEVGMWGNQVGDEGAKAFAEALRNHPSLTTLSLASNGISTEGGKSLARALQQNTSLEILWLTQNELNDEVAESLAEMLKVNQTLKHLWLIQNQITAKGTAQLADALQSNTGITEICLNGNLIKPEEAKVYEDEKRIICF
Sequence of Beta-galactosidase (Q8VNN2 whole entry): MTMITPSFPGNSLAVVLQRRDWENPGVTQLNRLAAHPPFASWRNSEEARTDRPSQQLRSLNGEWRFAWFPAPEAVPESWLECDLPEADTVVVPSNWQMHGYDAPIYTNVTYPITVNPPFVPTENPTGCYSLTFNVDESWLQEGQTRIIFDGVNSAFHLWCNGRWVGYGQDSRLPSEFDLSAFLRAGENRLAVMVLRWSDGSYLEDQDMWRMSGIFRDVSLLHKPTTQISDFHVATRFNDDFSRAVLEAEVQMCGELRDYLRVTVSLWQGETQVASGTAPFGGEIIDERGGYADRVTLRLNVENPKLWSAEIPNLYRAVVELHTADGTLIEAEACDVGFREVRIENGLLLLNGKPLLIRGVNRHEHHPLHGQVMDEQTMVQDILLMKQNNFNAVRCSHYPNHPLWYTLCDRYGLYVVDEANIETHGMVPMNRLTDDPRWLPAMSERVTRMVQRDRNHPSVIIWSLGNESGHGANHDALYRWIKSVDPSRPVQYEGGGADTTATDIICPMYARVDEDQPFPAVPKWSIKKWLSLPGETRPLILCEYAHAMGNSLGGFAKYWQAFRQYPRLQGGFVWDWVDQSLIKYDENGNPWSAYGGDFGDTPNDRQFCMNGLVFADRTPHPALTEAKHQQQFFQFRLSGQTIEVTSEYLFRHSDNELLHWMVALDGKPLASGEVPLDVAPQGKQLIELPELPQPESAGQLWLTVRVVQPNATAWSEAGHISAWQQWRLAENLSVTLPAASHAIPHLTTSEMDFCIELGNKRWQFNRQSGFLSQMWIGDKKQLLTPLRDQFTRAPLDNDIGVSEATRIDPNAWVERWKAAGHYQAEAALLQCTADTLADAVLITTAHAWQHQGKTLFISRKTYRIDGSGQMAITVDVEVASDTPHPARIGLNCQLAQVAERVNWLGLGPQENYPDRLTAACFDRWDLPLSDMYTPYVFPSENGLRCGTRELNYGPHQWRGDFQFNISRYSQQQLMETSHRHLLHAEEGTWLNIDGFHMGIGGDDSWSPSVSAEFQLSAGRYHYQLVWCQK
Sequence of Tumor necrosis factor (P01375 whole entry): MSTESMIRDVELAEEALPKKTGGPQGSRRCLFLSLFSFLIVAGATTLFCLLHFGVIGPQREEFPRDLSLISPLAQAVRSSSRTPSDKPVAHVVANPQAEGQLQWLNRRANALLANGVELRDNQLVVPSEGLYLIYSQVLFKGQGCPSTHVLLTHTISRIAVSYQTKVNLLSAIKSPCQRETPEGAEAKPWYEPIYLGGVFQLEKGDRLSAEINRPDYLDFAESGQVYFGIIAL

CCCc1ccc(C(=O)NC(=O)c2ccccc2O)cc1
EC50 (Ion channel NompC): > 3.32 µM (inactive) | IC50 [1]: 3.97 µM (active) | EC50 (Mucolipin-3): 14.7 µM (not active) | IC50 [2]: 8.68 µM (active) | IC50 [3]: 4.87 µM (active)

Cc1cccn2c(=O)c3cc(C(=O)NCc4ccco4)c(=N)n(C4CCCC4)c3nc12
IC50 [4]: 0.407 µM (active) | IC50 [5]: 1.68 µM (active) | IC50 (Cannabinoid receptor 1 [6]): > 32 µM (inactive) | IC50 (Cannabinoid receptor 2 [7]): > 32 µM (inactive) | EC50 [8]: > 32 µM (inactive) | IC50 [9]: > 32 µM (inactive) | EC50 (Cannabinoid receptor 2 [10]): > 32 µM (inactive) | EC50 (Cannabinoid receptor 1 [11]): > 32 µM (inactive)

Cc1ccc(CN2C3CCCC2CC(NC(=O)c2ccc(C)cc2)C3)cc1 (centres undefined)
IC50 [12]: 2.62 µM (active) | IC50 [13]: > 32 µM (inactive) | EC50 (Beta-galactosidase): > 31.5 µM (inactive) | EC50 [14]: > 32 µM (inactive) | EC50 [15]: > 120 µM (not active) | EC50 (H4): > 120 µM (not active) | IC50 [16]: 3.28 µM (active) | EC50 (Mu-type opioid receptor [17]): > 32 µM (inactive) | EC50 [18]: > 120 µM (not active) | EC50 [19]: > 32 µM (inactive) | IC50 [20]: 0.824 µM | IC50 (Mu-type opioid receptor [21]): > 32 µM (inactive) | IC50 [22]: > 32 µM (inactive)

N#Cc1ccccc1S(=O)(=O)n1c(N)nc2ccccc21
IC50 [23]: > 20 µM (inactive) | IC50 (Tumor necrosis factor): > 20 µM (inactive) | IC50 (HEK293): > 20 µM (inactive) | IC50 [24]: > 20 µM (inactive)

CC(C)c1ccc(CSc2nnc(-c3ccccn3)n2Cc2cccs2)cc1
EC50 [25]: > 32 µM (inactive) | EC50 [26]: 3.66 µM (active) | EC50 (Mu-type opioid receptor [27]): > 32 µM (inactive) | EC50 [28]: 2.17 µM (active)
